Laboratory results: US9670227B2, “Thienopyrimidine derivatives, a process for their preparation and pharmaceutical compositions containing them” (LES LABORATOIRES SERVIER, priority 2013, dated 2017)

Biological target: Mcl-1 protein (UniProtKB primary accession number: Q07820) (Homo sapiens, UniProt Q07820)
Assay: Inhibition of Mcl-1 by fluorescence polarisation, Method 1
Assay type: binding
Settings: fluorescence polarisation; Method 1, or Method 2; read-out: IC50 (M) Mcl-1 FP
How it was run: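 Buffer of 10 mM HEPES pH 7.4 with 150 mM NaCl and 0.05% Tween 20 held 5 nM Mcl-1 and 1 nM fluorescein-tagged ligand (final). Compounds were tested as 11-point serial dilutions at 5% final DMSO, and binding was read by FP.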

Mcl-1 protein, sequence (Q07820 whole entry): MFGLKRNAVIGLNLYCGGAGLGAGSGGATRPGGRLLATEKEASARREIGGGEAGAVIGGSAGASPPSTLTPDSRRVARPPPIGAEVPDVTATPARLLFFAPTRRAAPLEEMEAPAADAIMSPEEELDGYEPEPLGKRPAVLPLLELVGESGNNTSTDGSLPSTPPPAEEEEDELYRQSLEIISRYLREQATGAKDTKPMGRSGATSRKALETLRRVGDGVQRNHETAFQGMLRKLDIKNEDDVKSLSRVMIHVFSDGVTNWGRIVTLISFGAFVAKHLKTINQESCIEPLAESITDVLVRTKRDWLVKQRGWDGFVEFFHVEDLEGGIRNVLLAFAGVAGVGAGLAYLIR

Row | IC50 [M] | SMILES
1 | 1.2e-08 | CCc1sc2ncnc(OC(Cc3ccccc3)C(=O)O)c2c1-c1cc2nc(C)oc2c(Cl)c1C [Example 444, (2R)-2-{[(5Sa)-5-(7-chloro-2,6-dimethyl-1,3-benzoxazol-5-yl)-6-ethylthieno[2,3-d]pyrimidin-4-yl]oxy}-3-phenylpropanoic acid]
2 | 6.8e-08 | CCc1sc2ncnc(OC(Cc3ccccc3)C(=O)O)c2c1-c1ccc(O)cc1C [Example 447, (2R)-2-{[6-ethyl-(5Sa)-5-(4-hydroxy-2-methylphenyl)thieno[2,3-d]pyrimidin-4-yl]oxy}-3-phenylpropanoic acid]
3 | 4.4e-07 | CCc1sc2ncnc(OC(Cc3ccccc3)C(=O)O)c2c1-c1ccc(O)cc1C [Example 448, (2R)-2-{[6-ethyl-(5Ra)-5-(4-hydroxy-2-methylphenyl)thieno[2,3-d]pyrimidin-4-yl]oxy}-3-phenylpropanoic acid]
4 | 2.6e-08 | CCc1sc2ncnc(OC(Cc3ccccc3)C(=O)O)c2c1-c1cccc(Cl)c1C [Example 450, (2R)-2-{[(5Sa)-5-(3-chloro-2-methylphenyl)-6-ethylthieno[2,3-d]pyrimidin-4-yl]oxy}-3-phenylpropanoic acid]
5 | 5.8e-07 | CCc1sc2ncnc(OC(Cc3ccccc3)C(=O)O)c2c1-c1cccc(Cl)c1C [Example 451, (2R)-2-{[(5Ra)-5-(3-chloro-2-methylphenyl)-6-ethylthieno[2,3-d]pyrimidin-4-yl]oxy}-3-phenylpropanoic acid]
6 | 3e-07 | CCc1sc2ncnc(OC(Cc3ccccc3)C(=O)O)c2c1-c1cccc(O)c1C [Example 452, (2R)-2-{[6-ethyl-(5Sa)-5-(3-hydroxy-2-methylphenyl)thieno[2,3-d]pyrimidin-4-yl]oxy}-3-phenylpropanoic acid and (2S)-2-{[6-ethyl-(5Ra)-5-(3-hydroxy-2-methylphenyl)thieno[2,3-d]pyrimidin-4-yl]oxy}-3-phenylpropanoic acid]
7 | 1.2e-08 | CCc1sc2ncnc(OC(Cc3ccccc3OCC(F)(F)F)C(=O)O)c2c1-c1ccc(OCCN2CCN(C)CC2)c(Cl)c1C [Example 454, (2R)-2-[((5Sa)-5-{3-chloro-2-methyl-4-[2-(4-methylpiperazin-1-yl)ethoxy]phenyl}-6-ethylthieno[2,3-d]pyrimidin-4-yl)oxy]-3-[2-(2,2,2-trifluoroethoxy)phenyl]propanoic acid]
8 | 3.4e-08 | CCc1sc2ncnc(OC(Cc3ccccc3OCCOC)C(=O)O)c2c1-c1ccc(OCCN2CCN(C)CC2)c(Cl)c1C [Example 457, (2R)-2-[((5Sa)-5-{3-chloro-2-methyl-4-[2-(4-methylpiperazin-1-yl)ethoxy]phenyl}-6-ethylthieno[2,3-d]pyrimidin-4-yl)oxy]-3-[2-(2-methoxyethoxy)phenyl]propanoic acid]
9 | 3.7e-05 | CCc1sc2ncnc(O[C@@H](Cc3cccc4ccoc34)C(=O)O)c2c1-c1ccc(OCCN2CCN(C)CC2)c(Cl)c1C [Example 462, (2S)-3-(1-benzofuran-7-yl)-2-[((5Ra)-5-{3-chloro-2-methyl-4-[2-(4-methylpiperazin-1-yl)ethoxy]phenyl}-6-ethylthieno[2,3-d]pyrimidin-4-yl)oxy]propanoic acid]
10 | 3.9e-07 | CCc1sc2ncnc(OC(Cc3ccccc3F)C(=O)O)c2c1-c1ccc(OCCN2CCN(C)CC2)c(Cl)c1C [Example 464, (2S)-2-[((5Ra)-5-{3-chloro-2-methyl-4-[2-(4-methylpiperazin-1-yl)ethoxy]phenyl}-6-ethylthieno[2,3-d]pyrimidin-4-yl)oxy]-3-(2-fluorophenyl)propanoic acid]
11 | 5e-08 | CC#Cc1sc2ncnc(OC(Cc3ccccc3OC)C(=O)O)c2c1-c1cc(N2CCN(C)CC2)c(OC)c(Cl)c1C [Example 473, (2R)-2-({(5Sa)-5-[3-chloro-4-methoxy-2-methyl-5-(4-methylpiperazin-1-yl)phenyl]-6-(prop-1-yn-1-yl)thieno[2,3-d]pyrimidin-4-yl}oxy)-3-(2-methoxyphenyl)propanoic acid]
12 | 5.5e-07 | CC#Cc1sc2ncnc(OC(Cc3ccccc3OC)C(=O)O)c2c1-c1cc(C)c(OCCN2CCN(C)CC2)c(Cl)c1C [Example 474, (2R)-2-{[(5Ra)-5-{3-chloro-2,5-dimethyl-4-[2-(4-methylpiperazin-1-yl)ethoxy]phenyl}-6-(prop-1-yn-1-yl)thieno[2,3-d]pyrimidin-4-yl]oxy}-3-(2-methoxyphenyl)propanoic acid]
13 | 2.8e-08 | CC#Cc1sc2ncnc(OC(Cc3ccccc3OC)C(=O)O)c2c1-c1ccc(O)c(Cl)c1C [Example 480, (2R)-2-{[(5Sa)-5-(3-chloro-4-hydroxy-2-methylphenyl)-6-(prop-1-yn-1-yl)thieno[2,3-d]pyrimidin-4-yl]oxy}-3-(2-methoxyphenyl)propanoic acid]
14 | 7.4e-09 | CC#Cc1sc2ncnc(O[C@H](Cc3ccccc3OCc3ccnc(-c4ccccc4OC)n3)C(=O)O)c2c1-c1ccc(OCCN2CCN(C)CC2)c(Cl)c1C [Example 482, (2R)-2-{[(5Sa)-5-{3-chloro-2-methyl-4-[2-(4-methylpiperazin-1-yl)ethoxy]phenyl}-6-(prop-1-yn-1-yl)thieno[2,3-d]pyrimidin-4-yl]oxy}-3-(2-{[2-(2-methoxyphenyl)pyrimidin-4-yl]methoxy}phenyl)propanoic acid]
15 | 3e-09 | CC#Cc1sc2ncnc(OC(Cc3ccccc3OCc3ccnn3CCCC)C(=O)O)c2c1-c1ccc(OCCN2CCN(C)CC2)c(Cl)c1C [Example 490, (2R)-3-{2-[(1-butyl-1H-pyrazol-5-yl)methoxy]phenyl}-2-{[(5Sa)-5-{3-chloro-2-methyl-4-[2-(4-methylpiperazin-1-yl)ethoxy]phenyl}-6-(prop-1-yn-1-yl)thieno[2,3-d]pyrimidin-4-yl]oxy}propanoic acid]

Continued, molecule first:

Row | SMILES | IC50 [M]
16 | CCc1sc2ncnc(OC(Cc3ccccc3)C(=O)O)c2c1-c1cc(Br)c(O)c(Cl)c1C [Example 427, (2R)-2-{[(5Sa)-5-(5-bromo-3-chloro-4-hydroxy-2-methylphenyl)-6-ethylthieno[2,3-d]pyrimidin-4-yl]oxy}-3-phenylpropanoic acid] | 4.7e-09
17 | CCc1sc2ncnc(OC(Cc3ccccc3)C(=O)O)c2c1-c1cc(Cl)c(O)c(Cl)c1C [Example 428, (2R)-2-{[(5Sa)-5-(3,5-dichloro-4-hydroxy-2-methylphenyl)-6-ethylthieno[2,3-d]pyrimidin-4-yl]oxy}-3-phenylpropanoic acid] | 7.5e-09
18 | CCc1sc2ncnc(OC(Cc3ccccc3)C(=O)O)c2c1-c1cc(Cl)c(O)c(Cl)c1C [Example 429, (2R)-2-{[(5Ra)-5-(3,5-dichloro-4-hydroxy-2-methylphenyl)-6-ethylthieno[2,3-d]pyrimidin-4-yl]oxy}-3-phenylpropanoic acid] | 5.3e-08
19 | CCc1sc2ncnc(OC(Cc3ccccc3)C(=O)O)c2c1-c1cc(CN2CCN(C)CC2)c(O)c(Cl)c1C [Example 430, (2R)-2-[((5Sa)-5-{3-chloro-4-hydroxy-2-methyl-5-[(4-methylpiperazin-1-yl)methyl]phenyl}-6-ethylthieno[2,3-d]pyrimidin-4-yl)oxy]-3-phenylpropanoic acid] | 1.4e-07
20 | CCc1sc2ncnc(OC(Cc3ccccc3)C(=O)O)c2c1-c1cc(N)c(O)c(Cl)c1C [Example 431, (2R)-2-{[(5Sa)-5-(5-amino-3-chloro-4-hydroxy-2-methylphenyl)-6-ethylthieno[2,3-d]pyrimidin-4-yl]oxy}-3-phenylpropanoic acid] | 3.2e-08
21 | CCc1sc2ncnc(OC(Cc3ccccc3)C(=O)O)c2c1-c1cc(Cl)c(O)cc1C [Example 438, (2R)-2-{[(5Sa)-5-(5-chloro-4-hydroxy-2-methylphenyl)-6-ethylthieno[2,3-d]pyrimidin-4-yl]oxy}-3-phenylpropanoic acid] | 8.5e-08
22 | CCc1sc2ncnc(OC(Cc3ccccc3)C(=O)O)c2c1-c1cc(Cl)c(O)cc1C [Example 439, (2R)-2-{[(5Ra)-5-(5-chloro-4-hydroxy-2-methylphenyl)-6-ethylthieno[2,3-d]pyrimidin-4-yl]oxy}-3-phenylpropanoic acid] | 2.5e-07
23 | CCc1sc2ncnc(OC(Cc3ccccc3)C(=O)O)c2c1-c1cc(OCCN2CCN(C)CC2)ccc1C [Example 440, (2R)-2-[(6-ethyl-(5Sa)-5-{2-methyl-5-[2-(4-methylpiperazin-1-yl)ethoxy]phenyl}thieno[2,3-d]pyrimidin-4-yl)oxy]-3-phenylpropanoic acid and (2S)-2-[(6-ethyl-(5Ra)-5-{2-methyl-5-[2-(4-methylpiperazin-1-yl)ethoxy]phenyl}thieno[2,3-d]pyrimidin-4-yl)oxy]-3-phenylpropanoic acid] | 3e-07
24 | CCc1sc2ncnc(OC(Cc3ccccc3)C(=O)O)c2c1-c1cc2c(c(Cl)c1C)OCC(=O)N2 [Example 441, (2R)-2-{[(5Sa)-5-(8-chloro-7-methyl-3-oxo-3,4-dihydro-2H-1,4-benzoxazin-6-yl)-6-ethylthieno[2,3-d]pyrimidin-4-yl]oxy}-3-phenylpropanoic acid] | 2.7e-08
25 | CCc1sc2ncnc(O[C@H](Cc3ccccc3)C(=O)O)c2c1-c1cc2cc(CN(C)C)oc2c(Cl)c1C [Example 442, (2R)-2-[((5Sa)-5-{7-chloro-2-[(dimethylamino)methyl]-6-methyl-1-benzofuran-5-yl}-6-ethylthieno[2,3-d]pyrimidin-4-yl)oxy]-3-phenylpropanoic acid] | 1.1e-07
26 | CCc1sc2ncnc(OC(Cc3ccccc3)C(=O)O)c2c1-c1cc2ccoc2c(Cl)c1C [Example 443, (2R)-2-{[(5Sa)-5-(7-chloro-6-methyl-1-benzofuran-5-yl)-6-ethylthieno[2,3-d]pyrimidin-4-yl]oxy}-3-phenylpropanoic acid] | 1.8e-08

Same assay, conditions: partial inhibitors; @ 10 uM test compound

Row | percentage fluorescence polarisation inhibition, Mcl-1 FP [% @ 10 uM] | SMILES
27 | 13.05 | CC#Cc1sc2ncnc(O[C@H](Cc3ccccc3OC)C(=O)O)c2c1-c1cc(N2CCN(C)CC2)c(OC)c(Cl)c1C [Example 472, (2R)-2-({(5Ra)-5-[3-chloro-4-methoxy-2-methyl-5-(4-methylpiperazin-1-yl)phenyl]-6-(prop-1-yn-1-yl)thieno[2,3-d]pyrimidin-4-yl}oxy)-3-(2-methoxyphenyl)propanoic acid]
